Source: patent US20260028354A1, “TETRAHYDRONAPHTHALENE DERIVATIVES AS ESTROGEN RECEPTOR DEGRADERS” (REGENT OF THE UNIVERSITY OF MICHIGAN, priority 2022, published 2026)
Like-named read-outs stand apart in the source and are kept apart here.

How the values were obtained:
ERα_LBD (GST) = ERα_LBD (GST) (Homo sapiens (Human), UniProt P03372); experiment: IC50 measurements for binding to ERα_LBD (GST), LanthaScreen TR-FRET competitive binding; settings: ERα_LBD (GST) 4 nM, Fluormone ES2 Green tracer, 60 min; read-out: ERα HTRF IC50
Method in brief: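 Competitive TR-FRET displacement of Fluormone ES2 Green tracer (3 nM) from GST-tagged human ERα LBD (4 nM) with Tb anti-GST (2 nM), in nuclear receptor buffer K plus 5 mM DTT, 1% DMSO. 60 min at room temperature, dark; 520/495 nm ratio vs log[compound] fitted sigmoidally for IC50.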

ER in T47D cells = ER in T47D cells (Homo sapiens (Human), UniProt P03372); experiment: In-cell Western (ICW) ER degradation assay in T47D cells; type: cell-based; settings: for DC50: ER degradation
ER in MCF-7 cells = ER in MCF-7 cells (Homo sapiens (Human), UniProt P03372); experiment: In-cell Western (ICW) ER degradation assay in MCF-7 cells; type: cell-based; settings: for DC50: MCF-7, ER degradation, read-out: MCF7 DC50
T47D cells = experiment: CellTiter-Glo (CTG) cell proliferation assay in T47D cells; type: cell-based; settings: Homo sapiens, 144 h, Day 6
Source text: (§1) CellTiter-Glo® (CTG) Assays in MCF-7 and T47D Cell Lines.
(§2) In vitro Assay: MCF-7 and T47D CTG assay

CRBN/DDB1 = CRBN/DDB1 (Homo sapiens (Human), UniProt Q96SW2); type: binding; settings: His tagged CRBN+DDB1, Cy5-labeled Thalidomide probe, one hour; read-out: CRBN HTRF IC50
Description: The binding potency was determined using HTRF assay technology (Perkin Elmer). Compounds were serially diluted in DMSO and […] volume was transferred to white 384-well plate.

MCF-7 cells = experiment: CellTiter-Glo (CTG) cell proliferation assay in MCF-7 cells; type: cell-based; settings: Homo sapiens, MCF7, 144 h, MCF-7 cell proliferation, Day 6
Source text: as §1, §2

[1] = maximal ER degradation, 16 hrs treatment, read-out: T47D Dmax
[2] = MCF7, MCF-7, maximal ER degradation, 16 hrs treatment, read-out: MCF7 Dmax
[3] = read-out: T47D Dmax, T47D, maximal ER degradation, 16 hrs treatment
[4] = MCF7, read-out: MCF7 Dmax, MCF-7, maximal ER degradation, 16 hrs treatment

ER in T47D cells, sequence (P03372 whole entry): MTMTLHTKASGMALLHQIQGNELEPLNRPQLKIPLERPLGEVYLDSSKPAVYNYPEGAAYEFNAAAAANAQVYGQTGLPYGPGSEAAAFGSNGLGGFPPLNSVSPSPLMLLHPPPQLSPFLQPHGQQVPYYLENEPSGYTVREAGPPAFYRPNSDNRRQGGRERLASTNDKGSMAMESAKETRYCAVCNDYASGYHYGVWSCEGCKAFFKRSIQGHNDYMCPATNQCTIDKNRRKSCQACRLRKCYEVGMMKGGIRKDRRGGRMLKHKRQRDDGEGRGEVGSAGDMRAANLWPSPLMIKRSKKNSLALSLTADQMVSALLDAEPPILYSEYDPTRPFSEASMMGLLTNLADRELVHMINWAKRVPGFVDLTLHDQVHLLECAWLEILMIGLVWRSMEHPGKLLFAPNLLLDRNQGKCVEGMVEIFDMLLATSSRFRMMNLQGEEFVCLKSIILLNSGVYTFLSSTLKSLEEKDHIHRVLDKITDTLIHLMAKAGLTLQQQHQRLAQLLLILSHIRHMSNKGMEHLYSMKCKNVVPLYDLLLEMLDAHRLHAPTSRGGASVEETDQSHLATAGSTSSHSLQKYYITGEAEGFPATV
ER in MCF-7 cells, sequence (P03372 whole entry): as above
ERα_LBD (GST), sequence (P03372 311-547): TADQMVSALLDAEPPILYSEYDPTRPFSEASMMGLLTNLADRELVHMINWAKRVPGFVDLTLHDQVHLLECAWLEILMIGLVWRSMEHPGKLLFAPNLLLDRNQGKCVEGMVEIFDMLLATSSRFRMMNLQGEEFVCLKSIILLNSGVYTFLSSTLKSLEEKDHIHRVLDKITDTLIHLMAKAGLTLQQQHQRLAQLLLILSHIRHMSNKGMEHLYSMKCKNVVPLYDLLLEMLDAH
CRBN/DDB1, sequence (Q96SW2 whole entry, species assumed): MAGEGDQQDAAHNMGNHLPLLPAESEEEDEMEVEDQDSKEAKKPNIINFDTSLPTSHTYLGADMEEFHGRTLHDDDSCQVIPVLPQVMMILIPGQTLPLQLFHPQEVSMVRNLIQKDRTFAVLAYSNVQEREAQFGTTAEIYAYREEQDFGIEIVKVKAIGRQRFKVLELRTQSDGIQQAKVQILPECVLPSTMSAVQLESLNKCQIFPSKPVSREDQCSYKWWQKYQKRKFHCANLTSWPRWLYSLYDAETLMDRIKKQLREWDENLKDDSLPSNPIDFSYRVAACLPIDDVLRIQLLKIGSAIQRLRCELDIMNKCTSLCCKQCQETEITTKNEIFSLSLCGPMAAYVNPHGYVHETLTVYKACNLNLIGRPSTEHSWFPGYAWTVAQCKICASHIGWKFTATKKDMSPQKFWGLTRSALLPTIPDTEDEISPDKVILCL
CRBN/DDB1, sequence (Q16531 whole entry partner, species assumed): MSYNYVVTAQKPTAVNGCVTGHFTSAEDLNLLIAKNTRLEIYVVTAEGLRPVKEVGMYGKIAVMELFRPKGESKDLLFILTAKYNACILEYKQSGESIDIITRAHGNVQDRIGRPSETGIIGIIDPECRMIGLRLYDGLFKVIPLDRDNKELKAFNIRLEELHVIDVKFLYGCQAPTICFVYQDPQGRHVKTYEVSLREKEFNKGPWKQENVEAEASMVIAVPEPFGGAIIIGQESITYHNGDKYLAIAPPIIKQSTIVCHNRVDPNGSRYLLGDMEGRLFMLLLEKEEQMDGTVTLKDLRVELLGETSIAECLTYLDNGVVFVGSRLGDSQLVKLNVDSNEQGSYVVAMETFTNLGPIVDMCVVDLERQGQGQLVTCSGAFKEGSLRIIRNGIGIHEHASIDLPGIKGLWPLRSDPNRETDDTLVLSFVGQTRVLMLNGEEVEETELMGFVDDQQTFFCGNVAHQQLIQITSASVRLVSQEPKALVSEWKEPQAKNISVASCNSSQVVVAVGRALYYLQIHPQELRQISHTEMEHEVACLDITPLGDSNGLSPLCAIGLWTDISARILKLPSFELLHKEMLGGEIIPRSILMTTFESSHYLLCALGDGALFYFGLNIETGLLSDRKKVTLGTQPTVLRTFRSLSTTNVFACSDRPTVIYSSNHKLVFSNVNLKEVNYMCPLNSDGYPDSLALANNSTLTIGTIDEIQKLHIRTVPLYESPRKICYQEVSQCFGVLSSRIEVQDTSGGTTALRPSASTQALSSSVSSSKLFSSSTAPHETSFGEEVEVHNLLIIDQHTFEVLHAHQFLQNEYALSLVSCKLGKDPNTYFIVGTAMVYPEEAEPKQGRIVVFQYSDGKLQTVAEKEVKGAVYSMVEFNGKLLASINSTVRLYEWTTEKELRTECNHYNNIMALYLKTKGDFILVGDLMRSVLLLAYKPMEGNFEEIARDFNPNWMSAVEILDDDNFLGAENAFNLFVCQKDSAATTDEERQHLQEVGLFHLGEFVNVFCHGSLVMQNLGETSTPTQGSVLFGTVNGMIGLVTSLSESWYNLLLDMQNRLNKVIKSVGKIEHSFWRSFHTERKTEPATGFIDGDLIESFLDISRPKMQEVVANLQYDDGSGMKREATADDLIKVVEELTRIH

SMILES	IC50 (ERα_LBD (GST)) [nM]	DC50 (ER in T47D cells; 16 hrs treatment) [nM]	Dmax (ER in T47D cells; [1]) [%]	Dmax (ER in MCF-7 cells; [2]) [%]	DC50 (ER in MCF-7 cells; 16 hrs treatment) [nM]	IC50 (T47D cells) [nM]	IC50 (CRBN/DDB1) [nM]	IC50 (MCF-7 cells) [nM]	Dmax (ER in T47D cells; [3]) [%]	Dmax (ER in MCF-7 cells; [4]) [%]
O=C1CC[C@H](N2Cc3cc4c(cc3C2=O)OC[C@@H]2CN(CC3COC5(C3)CN(c3ccc([C@H]6c7ccc(O)cc7CC[C@H]6c6ccccc6)cc3)C5)CCN42)C(=O)N1 (single isomer, unassigned) [Compound A43]	< 10	< 1	> 75	50 to 75	< 1	10 to 100	50 to 500	10 to 100		
COc1cc(N2CCC3(CC2)C[C@H](CN2CCC4(CC2)COc2c4ccc4c2CN([C@H]2CCC(=O)NC2=O)C4=O)CO3)c(F)cc1[C@@H]1c2ccc(O)cc2CC[C@@H]1c1ccccc1 [Compound A176]	< 10	< 1			< 1	< 10		< 10	> 75	> 75
O=C1CC[C@H](N2Cc3c(ccc4c3OC[C@H]3CN(CC5COC6(C5)CN(c5ccc([C@H]7c8ccc(O)cc8CC[C@H]7c7ccccc7)cc5)C6)CCN43)C2=O)C(=O)N1 (single isomer, unassigned) [Compound A41]	< 10	< 1	> 75	> 75	< 1	< 10	< 50	< 10		
COc1cc(N2CCC3(CC2)C[C@@H](CN2CCN4c5cc6c(cc5OC[C@@H]4C2)C(=O)N([C@H]2CCC(=O)NC2=O)C6)CO3)ccc1[C@@H]1c2ccc(O)cc2CC[C@@H]1c1ccccc1 (single isomer, unassigned) [Compound A136]	< 10	< 1	> 75	> 75	< 1	< 10	500 to 5000	< 10		
COc1cc(N2CCC3(CC2)CC(CN2CCC4(CC2)COc2c4ccc4c2CN([C@H]2CCC(=O)NC2=O)C4=O)C3)c(F)cc1[C@@H]1c2ccc(O)cc2CC[C@@H]1c1ccccc1 [Compound A100, (S)-3-(1′-((7-(2-fluoro-4-((1S,2S)-6-hydroxy-2-phenyl-1,2,3,4-tetrahydronaphthalen-1-yl)-5-methoxyphenyl)-7-azaspiro[3.5]nonan-2-yl)methyl)-6-oxo-6,8-dihydro-2H,7H-spiro[furo[2,3-e]isoindole-3,4′-piperidin]-7-yl)piperidine-2,6-dione]	< 10	< 1			< 1	< 10	< 50	< 10	> 75	> 75
COc1cc(N2CCC3(CC2)CC(CN2CCC(c4ccc(N[C@@H]5CCC(=O)NC5=O)cc4)CC2)C3)c(F)cc1[C@@H]1c2ccc(O)cc2CC[C@@H]1c1ccccc1 (single isomer, unassigned) [Compound A31]	< 10	< 1	> 75	50 to 75	< 1	> 100		10 to 100		
COc1cc(N2CCC3(CC2)C[C@H](CN2CCN4c5cc6c(cc5OC[C@@H]4C2)C(=O)N([C@H]2CCC(=O)NC2=O)C6)CO3)c(F)cc1[C@@H]1c2ccc(O)cc2CC[C@@H]1c1ccccc1 [Compound A173, (S)-3-((S)-3-(((R)-8-(2-fluoro-4-((1S,2S)-6-hydroxy-2-phenyl-1,2,3,4-tetrahydronaphthalen-1-yl)-5-methoxyphenyl)-1-oxa-8-azaspiro[4.5]decan-3-yl)methyl)-8-oxo-1,2,3,4,4a,5,8,10-octahydro-9H-pyrazino[1′,2′:4,5][1,4]oxazino[2,3-f]isoindol-9-yl)piperidine-2,6-dione]	< 10	< 1	> 75	> 75	< 1	< 10		< 10		
COc1cc(N2CCC3(CC2)C[C@H](CN2CCN4c5ccc6c(c5OC[C@H]4C2)CN([C@H]2CCC(=O)NC2=O)C6=O)CO3)c(F)cc1[C@@H]1c2ccc(O)cc2CC[C@@H]1c1ccccc1 [Compound A174, (S)-3-((R)-7-(((R)-8-(2-fluoro-4-((1S,2S)-6-hydroxy-2-phenyl-1,2,3,4-tetrahydronaphthalen-1-yl)-5-methoxyphenyl)-1-oxa-8-azaspiro[4.5]decan-3-yl)methyl)-1-oxo-1,3,5,5a,6,7,8,9-octahydro-2H-pyrazino[1′,2′:4,5][1,4]oxazino[2,3-e]isoindol-2-yl)piperidine-2,6-dione]	< 10	< 1	> 75	> 75	< 1	< 10		< 10		
COc1cc(N2CCC3(CC2)C[C@H](CN2CCC4(CC2)COc2cc5c(cc24)CN([C@H]2CCC(=O)NC2=O)C5=O)CO3)c(F)cc1[C@@H]1c2ccc(O)cc2CC[C@@H]1c1ccccc1 [Compound A175, (S)-3-(1′-(((R)-8-(2-fluoro-4-((1S,2S)-6-hydroxy-2-phenyl-1,2,3,4-tetrahydronaphthalen-1-yl)-5-methoxyphenyl)-1-oxa-8-azaspiro[4.5]decan-3-yl)methyl)-7-oxo-5,7-dihydro-2H,6H-spiro[furo[2,3-f]isoindole-3,4′-piperidin]-6-yl)piperidine-2,6-dione]	< 10	< 1			< 1	< 10		< 10	> 75	> 75
COc1cc(N2CCC(CN3CCN4c5ccc6c(c5OCC4C3)CN([C@H]3CCC(=O)NC3=O)C6=O)CC2)c(F)cc1[C@@H]1c2ccc(O)cc2CC[C@@H]1c1ccccc1 (stereo in doubt) [Compound A35, (S)-3-((S)-7-((1-(2-fluoro-4-((1S,2S)-6-hydroxy-2-phenyl-1,2,3,4-tetrahydronaphthalen-1-yl)-5-methoxyphenyl)piperidin-4-yl)methyl)-1-oxo-1,3,5,5a,6,7,8,9-oCtahydro-2H-pyrazino[1′,2′: 4,5][1,4]oxazino[2,3-e]isoindol-2-yl)piperidine-2,6-dione]	< 10	< 1	> 75		< 1	10 to 100		10 to 100		> 75
COc1cc(N2CCC(CN3CCN4c5cc6c(cc5OC[C@H]4C3)C(=O)N([C@@H]3CCC(=O)NC3=O)C6)CC2)ccc1[C@H]1c2ccc(O)cc2CC[C@H]1c1ccccc1 (stereo in doubt) [Compound A34, (R)-3-((R)-3-((1-(4-((1R,2R)-6-hydroxy-2-phenyl-1,2,3,4-tetrahydronaphthalen-1-yl)-3-methoxyphenyl)piperidin-4-yl)methyl)-8-oxo-1,2,3,4,4a,5,8,10-octahydro-9H-pyrazino[1′,2′: 4,5][1,4]oxazino[2,3-f]isoindol-9-yl)piperidine-2,6-dione]		< 1	> 75		< 1	< 10		< 10		> 75
COc1cc(N2CCC3(CC2)C[C@H](CN2CCN4c5cc6c(cc5OC[C@@H]4C2)C(=O)N([C@H]2CCC(=O)NC2=O)C6)CO3)ccc1[C@@H]1c2ccc(O)cc2CC[C@@H]1c1ccccc1 (single isomer, unassigned) [Compound A135]	< 10	< 1		> 75	< 1	< 10	500 to 5000	< 10		
